ChEMBL document CHEMBL1136924 (J Med Chem, 2009)

Assay: Ratio of drug level in brain to plasma in rat at 5 mg/kg
Assay type: ADME, organism-based
Set-up: dose 5 mg/kg

Kp: 0.1
Structure (SMILES): O=C(O)CN1CCN(c2nc3cccc(F)c3n3cccc23)CC1
